# Measured values from patent US7652037B2, “Methods of lowering lipid levels in a mammal” (City Of Hope, priority 2003, dated 2010).
# pIC50: −log10 of the molar value. Marks after values point to notes of the source that are not given here.
# Legend:
# [1] = Kinetics of linoleic acid oxidation, TBARS; conditions: 5 mM linoleic acid, 1 mM compound, pH 7.4, 7 days at 37° C.
# Method: Human LDL was isolated from plasma of healthy donors by single vertical spin centrifugation (see Chung et al., Methods Enzymol. 128:181-209, 1986) and used within 24-48 hours of preparation. LDL (50 μg/mL) was incubated at 37° C. in 50 mM chelex-treated phosphate buffer, pH 7.4, alone or in the presence of 5 μM CuCl2 or 5 μM CuCl2 plus various concentrations of the LR compounds. After 5 hours of incubation, aliquots from each reaction mixture were removed for measurement of thiobarbituric acid-reacting substances (TBARS) as described in Satoh, Clin. Chim. Acta 90:37-43, 1978. Briefly, 250 μL of 20% trichloroacetic acid was added to 500 μL of sample aliquot, followed by 750 μL of 1% […]. The samples then were vortexed and incubated in a boiling water bath for 10 minutes. Upon cooling, the samples were centrifuged for 5 minutes at 5000 rpm. Absorbance of the supernatant was taken at 532 nm, and expressed as MDA equivalents using 1,1,3,3-tetramethoxypropane as standards. For fatty acid oxidation studies, linoleic acid (5#mM) was incubated alone or in the presence of 1 mM LR compound in […] phosphate buffer, pH 7.4, for 7 days at 37° C. Aliquots from each reaction mixture were withdrawn periodically for measurement of TBARS as described above.
# Aliquots were withdrawn periodically and assayed by the TBARS method as above. The MDA equivalent was estimated based on standards.
# [2] = tested on: STZ-Diabetic Rats; assay: Body weight and glycemia in STZ-diabetic and control rats (Example 1); format: in vivo, rat; conditions: for Body Weight / HbA1c / Plasma Glucose: mean ± SD; for effect on plasma glucose and glycated hemoglobin / weight compared to the diabetic control rats: diabetic rats; for weight compared to the diabetic control rats: only LR-90 statistically significant
# Method: Male Sprague-Dawley rats (about 175 to 200 g) were adapted for one week prior to treatment, then rendered diabetic by intra-peritoneal injection of STZ (65 mg/kg in citrate buffer, pH 4.5) after an overnight fast. Control (non-diabetic) animals were injected with the buffer only. Diabetes was confirmed by measuring the plasma glucose concentrations 7 days after Streptozotocin (STZ)-injection. Only animals with a plasma glucose concentration greater than 20 mmol were classified as diabetic and used in the study. These diabetic rats were divided randomly into an untreated diabetic control group and a diabetic treatment group. The treatment group received an LR compound at 50 mg/l in their drinking water throughout the duration of the study (32 weeks for LR-90; 30 weeks for LR-9 and LR-74). All animals were housed individually and were given free access to food and water.
# Blood (from the tail vein) and urine samples were collected from rats for glycemic control analysis and albuminuria measurements. Glycemia was monitored every 8 weeks by measuring plasma glucose and glycated hemoglobin. Plasma or serum also was tested for total cholesterol and total triglycerides. Progression of renal dysfunction was assessed by measuring urinary albumin to creatinine ratio (UA/Cr) and serum or plasma creatinine. For measurement of urinary albumin and creatinine concentrations, rats were housed in metabolic cages for 24 hours and urine was collected in a collection beaker with several drops of toluene to inhibit microbial growth.
# At the end of study, the rats were weighed and anaesthetized with isoflourane and blood was drawn by heart puncture and transferred into heparinized and non-heparinized vacutainer tubes on ice. These blood samples were later centifuged for plasma and serum collection respectively, and stored at −70° C. until the time of analysis. Rats were killed by over-anesthetization and cardiac puncture and the kidneys were removed immediately, weighed, decapsulated and rinsed in PBS buffer. Sections of the kidneys were stored in 10% NBF for subsequent microscopic examinations and immunohistochemistry. The tail of each individual rat was cut, removed and stored in 50 mL conical tubes at −70° C.
# Statistical analyses of data presented in this example and the following examples were first analyzed by ANOVA and post-hoc comparisons between group means were analyzed using unpaired Student's t test. A p value of less than 0.05 was considered statistically significant. Data are presented as means±SD.
# [3] = tested on: STZ-Diabetic Rats; assay: Tail tendon collagen crosslinking, fluorescence (pepsin digestion) and acid solubility; format: in vivo, rat; conditions: diabetic rats compared with untreated diabetic animals
# Method: Isolation and preparation of tail tendon collagen was performed according to Kochakian et al., Diabetes 45:1694-1700, 1996. The relative degree of crosslinking and AGE formation in collagen was assessed by pepsin digestion and acid solubility. Pepsin digestion was performed as described previously by Stefek et al., Biochim. Biophys. Acta 1502:398-404, 2000. Briefly, collagen samples of 10 mg from individual rats were digested with pepsin (50 μg/mL in 0.5 mol/l acetic acid) for 24 hours at 37° C. After digestion, the samples were centrifuged at 3000 rpm for 30 minutes at 4° C. and the clear supernatant containing the digested collagen was collected. One hundred microliter aliquots of the supernatant were mixed with 900 μL PBS buffer for measurement of the fluorescence of the sample at 365 nm excitation and 418 nm emission. The hydroxyproline content of the supernatant was calculated following acid hydrolysis using a microassay method according to known methods (Creemers et al., Biotechniques 22:656-658, 1997).
# The acid solubility of tail tendon collagen was measured by a modification of the method outlined in Yang et al., Arch. Biochem. Biophys. 412:42-46, 2003. Briefly, samples of about 2 mg collagen were weighed and solubilized in 0.05 M acetic acid overnight at 4° C. The suspensions were centrifuged at 20,000 g 60 minutes at 4° C. and the supernatants and pellets were separated for analysis of hydroxyproline content following acid hydrolysis. Acid solubility was calculated as the percentage of hydroxyproline in the supernatant divided by the total hydroxyproline content in the pellet and the supernatant.
# [4] = Inhibition of copper-catalyzed oxidation of ascorbic acid (Cu2+ chelating activity); conditions: 500 nmol/L CuCl2, 500 μmol/L ascorbic acid, phosphate buffer pH 7.4, 60 minutes; read-out: IC50, concentration that inhibited the rate of AA oxidation by 50%
# Method: In vitro measurement of the kinetics of inhibition of copper-catalyzed oxidation of ascorbic acid was performed according to the methods of Price et al., J. Biol. Chem. 276:48967-48972, 2001. Briefly, CuCl2 and various concentrations of inhibitor compounds were pre-incubated in chelex-treated 20 mmol/L phosphate buffer, pH 7.4, for 5 minutes. Ascorbic acid then was added (50 μL of 10 mmol/L in water) to initiate the reaction (1 mL total reaction volume). The final concentrations of CuCl2 and ascorbic acid in the reaction were 500 nmol/L and 500 μmol/L, respectively. Aliquots (135 μL) were removed at 0 and 60 minutes and transferred to autoinjector vials containing 15 μL of 10 mmol/l DTPA. Samples were analyzed by reversed phase HPLC on an XTerra™ RP18 column (250 mm×4.6 mm, 5 μm) with an XTerra™ RP18 5 μm guard column using a Waters® 2690 Separator Module equipped with auto-injector and Millenium® 32 software. Solvents and gradient were all used as described in Dillon et al., Life Sci. 72:1583-1594, 2003. The absorbance of ascorbic acid was measured at 244 nm and the peak area was obtained to estimate the percent of ascorbic acid remaining versus time. For each inhibitor compound, the concentration that inhibited the rate of AA oxidation by 50% (IC50), was calculated with respect to the control using Prism™ software.
# [5] = STZ-diabetic (D) rats, 50 mg/l in drinking water, 30 weeks
# [6] = non-diabetic (ND) rats, 50 mg/l in drinking water, 30 weeks
# [7] = STZ-diabetic (D) rats, LR-90 50 mg/l in drinking water, 32 weeks
# [8] = non-diabetic (ND) rats, LR-90 50 mg/l in drinking water, 32 weeks
Compound,"linoleic acid (LA) oxidation, MDA equivalents [1]","Body Weight [2, 5]","HbA1c [2, 5]","Plasma Glucose [2, 5]",effect on plasma glucose and glycated hemoglobin ([2]; 50 mg/l in drinking water),weight compared to the diabetic control rats ([2]; 50 mg/l in drinking water),"Body Weight [2, 6]","HbA1c [2, 6]","Plasma Glucose [2, 6]",fluorescence and crosslinking of tail tendon collagen (pepsin digestion) [3],pIC50 [4],"Body Weight [2, 7]","HbA1c [2, 7]","Plasma Glucose [2, 7]","Body Weight [2, 8]","HbA1c [2, 8]","Plasma Glucose [2, 8]"
"CC(C)(Oc1ccc(NC(=O)c2ccc3ccccc3c2)cc1)C(=O)O [LR-9, 4-(2-napthylcarboxamido) phenoxyisobutyric acid]",totally prevented LA oxidation,288.0 ± 71.8 g,1.95 ± 0.22^b %,27.1 ± 1.3 mmol/L,did not affect,moderate increase in weight,681.0 ± 9.3 g,0.90 ± 0.08%,8.2 ± 0.9 mmol/L,significant reduction,3.70,,,,,,
"CC(Oc1cccc2cccnc12)C(=O)O (stereo not drawn) [LR-74, 2-(8-quinolinoxy) propionic acid]",did not totally prevent the oxidation,314.7 ± 53.0 g,2.10 ± 0.30%,26.9 ± 1.5 mmol/L,did not affect,moderate increase in weight,744.0 ± 51.8 g,0.87 ± 0.12%,6.8 ± 0.8 mmol/L,significant reduction,4.30,,,,,,
"methylene bis(4,4′-(2-chlorophenylureidophenoxyisobutyric acid) [LR-90]",totally prevented LA oxidation,,,,did not affect,moderate increase in weight,,,,significant reduction,3.56,337.6 ± 26.6^c g,3.3 ± 0.4%,28.9 ± 3.4 mmol/L,723.0 ± 21.9 g,1.5 ± 0.1%,6.8 ± 0.7 mmol/L
